From patent US20240352046A1, “ECTONUCLEOTIDE PYROPHOSPHATASE-PHOSPHODIESTERASE-1 (ENPP1) INHIBITORS AND USES THEREOF” (1cBio, Inc., priority 2020, published 2024)
Like-named read-outs stand apart in the source and are kept apart here.

Assays:
[1] = target: ENPP-1 (Ectonucleotide Pyrophosphatase/Phosphodiesterase 1) (Homo sapiens (Human), UniProt P22413); assay: ENPP1 inhibition assay (AMP Glo, cGAMP substrate); assay type: biochemical
[2] = system: IP-10 release in differentiated THP-1 cells; assay: IP-10 cytokine release assay in THP-1 cell lines; assay type: cell-based, Human; details: Homo sapiens
Experimental: Percent release of Interferon gamma-induced protein 10 (IP-10) was determined in acute monocytic leukemia (THP-1; ATCC® TIB-202™) cell line. THP-1 cells (0.2×10^6 cells/well) were differentiated using phorbol 12-myristate 13-acetate (PMA, 10 nM (final concentration); Cat #P8139, Sigma) and incubated for 24 h at 37° C., 5% CO2 in an incubator (cell culture conditions) prior to treating with serial dilutions of compounds (3 fold, 6 point dose response starting at 10 μM). After treatment with the compounds cells were further incubated for 2 h under cell culture conditions and then exposed to 2′,3′-cGAMP (c-GAMP, 1 μM (final concentration); Cat #SML 1229, Sigma). Differentiated THP-1 cells were further cultured for 24 h after which the supernatant was harvested, and ELISA was performed as per the manufacturer's protocol (BD optEIA Human IP-10 ELISA Set; Cat #550926 & 550534, BD Biosciences). Plates were read in Biotek plate reader by measuring absorbance at 450 nm.
The release of absolute IP-10 in differentiated THP-1 by compounds in the presence of cGAMP was quantified with reference to standard after subtracting blank (negative) reading from the test readings. The absolute release of IP-10 in the presence of cGAMP (1 μM) is given in the bar-graph (FIG.-1) and in the table-B2a.
The release of IP-10 in differentiated THP-1 by compounds over cGAMP induced release at four different concentrations of cGAMP (1, 5, 10 & 30 μM) was quantified with reference to standard by normalizing the blank (negative) subtracted test readings from average of cGAMP activated cells at that particular concentration. The EC50's was calculated by fitting the curve to the “four-parameter variable slope logistic model” using Prism Graph Pad.

[3] = system: IFN-β release in differentiated THP-1 cells; assay: IFN-β cytokine release assay in THP-1; assay type: cell-based; details: Homo sapiens, read-out: EC50 (μM) @ 1 μM of cGAMP; IFN-β release over cGAMP induced release, THP-1, 1 μM cGAMP
Experimental: Percent release of Interferon Beta (IFN-03) was determined in acute monocytic leukemia (THP-1; ATCC® TIB-202™) cell line. THP-1 cells (0.3×10^6 cells/well) were differentiated using phorbol 12-myristate 13-acetate (PMA, 50 ng/mL; Cat #P8139, Sigma) and incubated for 24 h at 37° C., 5% CO2 in an incubator (cell culture conditions) prior to treating with serial dilutions of compounds (3 fold, 5 point dose response starting at […]). After treatment with the compounds cells were further incubated for 2 h under cell culture conditions and then exposed to 2′,3′-cGAMP (c-GAMP, 1 μM; Cat #SML 1229, Sigma). Differentiated THP-1 cells were further cultured for 6 h after which the supernatant was harvested, and ELISA was performed as per the manufacturer's protocol (Human IFN-beta Quantikine ELISA Kit; Cat #DIFNB0, R&D systems). Plates were read in Biotek plate reader by measuring absorbance at 450 nm.

[4] = cGAMP 20 μM substrate, ENPP1 1 nM
[5] = read-out: EC50 (μM)@ 1 μM of cGAMP, IP-10 release over cGAMP induced release, THP-1, 1 μM cGAMP
[6] = THP-1, read-out: EC50 (μM)@ 1 μM of cGAMP

Chain of ENPP-1 (Ectonucleotide Pyrophosphatase/Phosphodiesterase 1) (P22413 whole entry): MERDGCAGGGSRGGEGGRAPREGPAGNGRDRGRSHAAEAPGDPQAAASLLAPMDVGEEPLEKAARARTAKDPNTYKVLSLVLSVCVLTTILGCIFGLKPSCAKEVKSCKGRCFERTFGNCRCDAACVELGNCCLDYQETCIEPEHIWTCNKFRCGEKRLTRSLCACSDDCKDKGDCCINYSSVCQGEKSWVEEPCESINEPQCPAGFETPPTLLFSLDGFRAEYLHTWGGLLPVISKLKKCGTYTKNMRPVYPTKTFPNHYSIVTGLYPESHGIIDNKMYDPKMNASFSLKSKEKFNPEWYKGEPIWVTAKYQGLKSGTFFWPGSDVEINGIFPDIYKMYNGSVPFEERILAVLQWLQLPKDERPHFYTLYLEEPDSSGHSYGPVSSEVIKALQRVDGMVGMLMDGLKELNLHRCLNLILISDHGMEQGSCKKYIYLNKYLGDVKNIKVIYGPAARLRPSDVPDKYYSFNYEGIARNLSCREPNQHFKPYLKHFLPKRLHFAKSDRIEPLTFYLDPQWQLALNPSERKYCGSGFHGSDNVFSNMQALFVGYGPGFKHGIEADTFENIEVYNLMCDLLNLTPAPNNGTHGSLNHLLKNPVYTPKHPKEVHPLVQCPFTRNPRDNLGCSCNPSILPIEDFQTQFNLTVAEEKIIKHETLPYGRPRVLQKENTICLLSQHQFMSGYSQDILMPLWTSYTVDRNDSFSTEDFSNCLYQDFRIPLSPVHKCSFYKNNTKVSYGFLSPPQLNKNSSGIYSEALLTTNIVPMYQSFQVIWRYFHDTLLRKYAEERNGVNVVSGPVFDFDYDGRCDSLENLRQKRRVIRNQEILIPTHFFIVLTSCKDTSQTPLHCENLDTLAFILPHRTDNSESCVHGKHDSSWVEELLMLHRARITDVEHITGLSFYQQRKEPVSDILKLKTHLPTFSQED

Structure (SMILES)	IC50 [1, 4]	EC50 [2, 5]	EC50 [3]	EC50 [2, 6]	IC50 [1]
COc1cc2ncnc(N3CC(CCNS(C)(=O)=O)C3)c2cc1OC [Compound 1.6, N-(2-[1-(6,7-dimethoxyquinazolin-4-yl)azetidin-3-yl]ethyl)methanesulfonamide]	0.09 µM	7.78 µM	> 30 µM		
COc1cc2ncnc(N3CC(CCNC(C)=O)C3)c2cc1OC [Compound 1.7, N-(2-[1-(6,7-dimethoxyquinazolin-4-yl)azetidin-3-yl]ethyl)acetamide]				> 30 µM	
COc1cc2nc(C)nc(N3CC(CCNS(N)(=O)=O)C3)c2cc1OC [Compound 1.17, 4-(3-(2-sulfamoylaminoethyl)azetidine-1-yl)-6,7-dimethoxy-2-methylquinazoline]				0.129 µM	0.057 µM
CCOc1cccc2c(N3CC(CCNS(N)(=O)=O)C3)ncnc12 [Compound 1.19, 4-(3-(2-sulfamoylaminoethyl)azetidine-1-yl)-8-ethoxyquinazoline]	0.084 µM	< 0.12 µM			
Cc1ccn2ncnc(N3CC(CCNS(N)(=O)=O)C3)c12 [Compound 1.20, 4-(3-(2-sulfamoylaminoethyl)azetidine-1-yl)-5-methylpyrrolo[1,2-f][1,2,4]triazine]	0.07 µM	5.73 µM	> 30 µM		
COc1cc2nc(-c3ccccc3)nc(N3CC(CCNS(N)(=O)=O)C3)c2cc1OC [Compound 1.21, 4-(3-(2-sulfamoylaminoethyl)azetidine-1-yl)-6,7-dimethoxy-2-phenylquinazoline]	0.092 µM	1.88 µM	> 30 µM		
COc1cc2ncnc(N3CC(C)(CCNS(N)(=O)=O)C3)c2cc1OC [Compound 1.22, 4-(3-Methyl-3-(2-sulfamoylaminoethyl)azetidine-1-yl)-6,7-dimethoxyquinazoline]	0.009 µM	0.49 µM			
COc1cc2ncnc(N3CC(CCN(C4CC4)S(N)(=O)=O)C3)c2cc1OC [Compound 1.23, 4-(3-(2-((sulfamoyl)(cyclopropyl)amino)ethyl)azetidine-1-yl)-6,7-dimethoxyquinazoline]	0.029 µM	7.87 µM	> 30 µM		
COc1ccc2c(N3CC4(CC(NS(N)(=O)=O)C4)C3)ncnc2c1 [Compound 1.26, 4-(6-sulfamoylamino-2-azaspiro[3.3]heptan-2-yl)-7-methoxyquinazoline]	0.006 µM	< 0.12 µM			
COc1cc2nncc(N3CC(CCNS(N)(=O)=O)C3)c2cc1OC [Compound 1.27, 4-(3-(2-sulfamoylaminoethyl)azetidine-1-yl)-6,7-dimethoxycinnoline]	0.043 µM	< 0.1 µM			
COc1cc2ncnc(N3CC(CC(=O)NO)C3)c2cc1OC [Compound 1.28, 2-(1-(6,7-dimethoxyquinazolin-4-yl)azetidin-3-yl)-N-hydroxyacetamide]	0.026 µM	9.56 µM	> 30 µM		
COc1cc2ncnc(N3CC(CCB(O)O)C3)c2cc1OC [Compound 1.30, 2-(1-(6,7-dimethoxyquinazolin-4-yl)azetidin-3-yl)ethylboronic acid]	0.019 µM	< 0.12 µM	> 30 µM		
COc1cc2nc(-c3ccncc3)nc(N3CC(CCNS(N)(=O)=O)C3)c2cc1OC [Compound 1.35, 4-(3-(2-sulfamoylaminoethyl)azetidine-1-yl)-6,7-dimethoxy-2-(pyridin-4-yl)quinazoline]	0.099 µM	> 30 µM			
COc1cc2ncnc(N3CC(CCCS(N)(=O)=O)C3)c2cc1OC [Compound 1.39, 3-(1-(6,7-dimethoxyquinazolin-4-yl)azetidin-3-yl)propane-1-sulfonamide]		3.26 µM	> 30 µM		
COc1cc2ncnc(N3CC4(CC(N(C)S(N)(=O)=O)C4)C3)c2cc1OC [Compound 1.46, N-[2-(6,7-di-methoxyquinazoline-4-yl)-2-azaspiro[3.3]hept-6-yl]-N-methylsulfuric diamide]	0.019 µM	0.912 µM			
COc1cc2ncnc(N3CC(CCN(C)S(N)(=O)=O)C3)c2cc1OC [Compound 1.47, 4-(3-(2-sulfamoylmethylaminoethyl)azetidine-1-yl)-6,7-di-methoxyquinazoline]		19.9 µM			
COc1cc2ncnc(N3CC4(CC(N(C5CC5)S(N)(=O)=O)C4)C3)c2cc1OC [Compound 1.48, N-[2-(6,7-di-methoxyquinazoline-4-yl)-2-azaspiro[3.3]hept-6-yl]-N-cyclopropylsulfuric diamide]	0.144 µM	> 30 µM			
COc1cc2ncnc(N3CC4(CC(NS(C)(=O)=O)C4)C3)c2cc1OC [Compound 1.49, N-(2-(6,7-dimethoxyquinazolin-4-yl)-2-azaspiro[3.3]heptan-6-yl)methanesulfonamide]	> 1.98 µM	> 30 µM			
COc1cc(OC)c2ncnc(N3CC(CCNS(N)(=O)=O)C3)c2c1 [Compound 1.50, 4-(3-(2-sulfamoylaminoethyl)azetidine-1-yl)-6,8-di-methoxyquinazoline]	1.48 µM	> 30 µM			
COc1cc2ncnc(N3CC(CCC(=O)NO)C3)c2cc1OC [Compound 1.51, 3-(1-(6,7-dimethoxyquinazolin-4-yl)azetidin-3-yl)-N-hydroxypropanamide]	0.015 µM	> 30 µM			
COc1cc2ncnc(N3CC(CCS(N)(=O)=O)C3)c2cc1OC [Compound 1.52, 2-(1-(6,7-dimethoxyquinazolin-4-yl)azetidin-3-yl)ethanesulfonamide]	0.043 µM	> 18.6 µM			
COc1cc2ncnc(N3CC4(CC(C(=O)NO)C4)C3)c2cc1OC [Compound 1.63, 2-(6,7-dimethoxyquinazolin-4-yl)-N-hydroxy-2-azaspiro[3.3]heptane-6-carboxamide]		< 0.12 µM			
COc1cc2ncnc(N3CC(CCNS(N)(=O)=O)C3)c2cc1F [Compound 1.66, 4-(3-(2-sulfamoylaminoethyl)azetidine-1-yl)-6-fluoro-7-methoxy quinazoline]	0.006 µM	< 0.12 µM			
COc1cc2ncnc(N3CC(CCCNS(N)(=O)=O)C3)c2cc1OC [Compound 1.69, 4-3-(3-sulfamoylaminopropyl)azetidin-1-yl-6,7-dimethoxyquinazoline]		0.724 µM			
COc1cc2ncnc(N3CC(C(C)CNS(N)(=O)=O)C3)c2cc1OC (stereo not shown) [Compound 1.70, 4-3-(3-sulfamoylaminopropan-2-yl)azetidin-1-yl-6,7-dimethoxyquinazoline]	0.024 µM	0.304 µM	2.82 µM		
Cc1nc(N2CC(CCNS(N)(=O)=O)C2)c2c(C)ccn2n1 [Compound 1.71, 4-(3-(2-sulfamoylaminoethyl)azetidine-1-yl)-2,5-di-methylpyrrolo[1,2-f][1,2,4]triazine]	> 3 µM		> 30 µM		
